What was measured:
Type in all cases: in vivo
Scirpus juncoides = assay: Test Example 2: herbicidal activity, application during weed generation in submerged conditions; conditions: Eighteenth Table; application herbicide amount 320 g/ha
How it was run: (§1)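 Alluvial soil in Wagner pots flooded to 4 cm water depth; seeds sown mixed, grown in greenhouse at 25–30 °C. At one- to two-leaf stage, emulsion diluted with water to the set rate (g/ha) was applied to the water surface. Effect scored 0–5 by herbicidal ratio three weeks later.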

Monochoria vaginalis = assay: as above; conditions: Eighteenth Table; application herbicide amount 320 g/ha
How it was run: as §1

[1] = system: Echinochloa oryzacola Vasing.; assay: as above; conditions: Eighteenth Table; application herbicide amount 320 g/ha
How it was run: as §1

[2] = system: Beta vulgaris ssp. vulgaris; assay: Test Example 4: effect on crop by application to foliage (diluvial soil, plastic box); conditions: for f (Beta vulgaris ssp. vulgaris) effect on crop grade: foliage application
How it was run: (§2)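 Scores run from 0 (herbicidal ratio ≤5%) to 5 (≥90%, almost fully withered) and were assessed three weeks after foliar spraying. Seedlings had been raised for 14 days at 25-30° C in sterilized diluvial soil before treatment, with the emulsion diluted in water to the stated g/ha dose.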

Triticum aestivum = assay: as above; conditions: for e (Triticum aestivum) effect on crop grade: foliage application
How it was run: as §2

Zea mays = assay: as above; conditions: for c (Zea mays) effect on crop grade: Application herbicide amount 320 g/ha
How it was run: as §2

Brassica campestris L. = assay: as above; conditions: for g (Brassica campestris L.) effect on crop grade: foliage application
How it was run: as §2

Glycine max = assay: as above; conditions: for d (Glycine max) effect on crop grade: Application herbicide amount 320 g/ha
How it was run: as §2

[3] = system: directly sowed Oryza sativa; assay: as above; conditions: for b (directly sowed Oryza sativa) effect on crop grade: Application herbicide amount 320 g/ha
How it was run: as §2

Lolium multiflorum Lam. = assay: Test Example 4: herbicidal effect by application to foliage (diluvial soil, plastic box); conditions: for K (Lolium multiflorum Lam.) herbicidal effect grade: foliage application
How it was run: as §2

Amaranthus retroflexus = assay: as above; conditions: for N (Amaranthus retroflexus) herbicidal effect grade: foliage application
How it was run: as §2

Avena fatua = assay: as above; conditions: for I (Avena fatua) herbicidal effect grade: foliage application
How it was run: as §2

[4] = system: Echinochloa crus-galli var. crus-galli; assay: as above; conditions: for H (Echinochloa crus-galli var. crus-galli) herbicidal effect grade: foliage application
How it was run: as §2

Apera spica-venti. = assay: as above; conditions: for L (Apera spica-venti.) herbicidal effect grade: foliage application
How it was run: as §2

Veronica persica = assay: as above; conditions: for R (Veronica persica) herbicidal effect grade: foliage application
How it was run: as §2

Stellaria media = assay: as above; conditions: for P (Stellaria media) herbicidal effect grade: foliage application
How it was run: as §2

Abutilon theophrasti = assay: as above; conditions: for M (Abutilon theophrasti) herbicidal effect grade: foliage application
How it was run: as §2

Digitaria ciliaris = assay: as above; conditions: for F (Digitaria ciliaris) herbicidal effect grade: foliage application
How it was run: as §2

Chenopodium album = assay: as above; conditions: for O (Chenopodium album) herbicidal effect grade: foliage application
How it was run: as §2

Alopecurus myosuroides = assay: as above; conditions: for J (Alopecurus myosuroides) herbicidal effect grade: foliage application
How it was run: as §2

Galium spurium = assay: as above; conditions: for Q (Galium spurium) herbicidal effect grade: foliage application
How it was run: as §2

[5] = Application herbicide amount 320 g/ha
[6] = application to foliage, application herbicide amount 320 g/ha

Row | Structure (SMILES) | B (Scirpus juncoides) herbicidal ratio grade (Scirpus juncoides) | C (Monochoria vaginalis) herbicidal ratio grade (Monochoria vaginalis) | A (Echinochloa oryzicola Vasing.) herbicidal ratio grade [1] | f (Beta vulgaris ssp. vulgaris) effect on crop grade [2, 5] | e (Triticum aestivum) effect on crop grade (Triticum aestivum; [5]) | c (Zea mays) effect on crop grade (Zea mays; foliage application) | g (Brassica campestris L.) effect on crop grade (Brassica campestris L.; [5]) | d (Glycine max) effect on crop grade (Glycine max; foliage application) | b (directly sowed Oryza sativa) effect on crop grade ([3]; foliage application) | K (Lolium multiflorum Lam.) herbicidal effect grade (Lolium multiflorum Lam.; [5]) | N (Amaranthus retroflexus) herbicidal effect grade (Amaranthus retroflexus; [5]) | I (Avena fatua) herbicidal effect grade (Avena fatua; [5]) | H (Echinochloa crus-galli var. crus-galli) herbicidal effect grade [4, 5] | L (Apera spica-venti.) herbicidal effect grade (Apera spica-venti.; [5]) | R (Veronica persica) herbicidal effect grade (Veronica persica; [5]) | P (Stellaria media) herbicidal effect grade (Stellaria media; [5]) | M (Abutilon theophrasti) herbicidal effect grade (Abutilon theophrasti; [5]) | F (Digitaria ciliaris) herbicidal effect grade (Digitaria ciliaris; [5]) | O (Chenopodium album) herbicidal effect grade (Chenopodium album; [5]) | J (Alopecurus myosuroides) herbicidal effect grade (Alopecurus myosuroides; [5]) | other results
1 | Cc1nnc(NC(=O)c2ccc(C(F)(F)F)n3c(N4CCSCC4)nnc23)o1 [1-118] | 3 (Herbicidal ratio of 40% or more and less than 70%) | 0 (Herbicidal ratio of 5% or less (almost no effect)) | 2 (Herbicidal ratio of 20% or more and less than 40%) | 5 (Herbicidal ratio of 90% or more (almost completely withered)) | 1 (Herbicidal ratio of 5% or more and less than 20%) | 0 (Herbicidal ratio of 5% or less (almost no effect)) | 5 (Herbicidal ratio of 90% or more (almost completely withered)) | 4 (Herbicidal ratio of 70% or more and less than 90%) | 4 (Herbicidal ratio of 70% or more and less than 90%) | 1 (Herbicidal ratio of 5% or more and less than 20%) | 4 (Herbicidal ratio of 70% or more and less than 90%) | 3 (Herbicidal ratio of 40% or more and less than 70%) | 5 (Herbicidal ratio of 90% or more (almost completely withered)) | 3 (Herbicidal ratio of 40% or more and less than 70%) | 5 (Herbicidal ratio of 90% or more (almost completely withered)) | 4 (Herbicidal ratio of 70% or more and less than 90%) | 4 (Herbicidal ratio of 70% or more and less than 90%) | 5 (Herbicidal ratio of 90% or more (almost completely withered)) | 5 (Herbicidal ratio of 90% or more (almost completely withered)) | 1 (Herbicidal ratio of 5% or more and less than 20%) | Q (Galium spurium) herbicidal effect grade (Galium spurium; [5]): 4 (Herbicidal ratio of 70% or more and less than 90%)
2 | CSCc1nnc2c(C(=O)Nc3nnnn3C)ccc(C(F)(F)F)n12 [2-029] | 4 (Herbicidal ratio of 70% or more and less than 90%) | 4 (Herbicidal ratio of 70% or more and less than 90%) | 5 (Herbicidal ratio of 90% or more (almost completely withered)) | – | – | – | – | – | – | – | – | – | – | – | – | – | – | – | – | – | f (Beta vulgaris ssp. vulgaris) effect on crop grade ([2]; 320 g/ha): 5 (Herbicidal ratio of 90% or more (almost completely withered)); e (Triticum aestivum) effect on crop grade (Triticum aestivum; 320 g/ha): 5 (Herbicidal ratio of 90% or more (almost completely withered)); b (Zea mays) effect on crop grade (Zea mays; foliage application, 320 g/ha): 5 (Herbicidal ratio of 90% or more (almost completely withered)); g (Brassica campestris L.) effect on crop grade (Brassica campestris L.; 320 g/ha): 5 (Herbicidal ratio of 90% or more (almost completely withered)); c (Glycine max) effect on crop grade (Glycine max; foliage application, 320 g/ha): 4 (Herbicidal ratio of 70% or more and less than 90%); d (directly sowed Oryza sativa) effect on crop grade ([3]; foliage application, 320 g/ha): 5 (Herbicidal ratio of 90% or more (almost completely withered)); K (Lolium multiflorum Lam.) herbicidal effect grade (Lolium multiflorum Lam.; 320 g/ha): 5 (Herbicidal ratio of 90% or more (almost completely withered)); N (Amaranthus retroflexus) herbicidal effect grade (Amaranthus retroflexus; 320 g/ha): 5 (Herbicidal ratio of 90% or more (almost completely withered)); I (Avena fatua) herbicidal effect grade (Avena fatua; 320 g/ha): 5 (Herbicidal ratio of 90% or more (almost completely withered)); H (Echinochloa crus-galli var. crus-galli) herbicidal effect grade ([4]; 320 g/ha): 5 (Herbicidal ratio of 90% or more (almost completely withered)); L (Apera spica-venti.) herbicidal effect grade (Apera spica-venti.; 320 g/ha): 5 (Herbicidal ratio of 90% or more (almost completely withered)); R (Veronica persica) herbicidal effect grade (Veronica persica; 320 g/ha): 5 (Herbicidal ratio of 90% or more (almost completely withered)); P (Stellaria media) herbicidal effect grade (Stellaria media; 320 g/ha): 5 (Herbicidal ratio of 90% or more (almost completely withered)); M (Abutilon theophrasti) herbicidal effect grade (Abutilon theophrasti; 320 g/ha): 5 (Herbicidal ratio of 90% or more (almost completely withered)); F (Digitaria ciliaris) herbicidal effect grade (Digitaria ciliaris; 320 g/ha): 5 (Herbicidal ratio of 90% or more (almost completely withered)); O (Chenopodium album) herbicidal effect grade (Chenopodium album; 320 g/ha): 5 (Herbicidal ratio of 90% or more (almost completely withered)); J (Alopecurus myosuroides) herbicidal effect grade (Alopecurus myosuroides; 320 g/ha): 5 (Herbicidal ratio of 90% or more (almost completely withered)); Q (Galium spurium) herbicidal effect grade (Galium spurium; 320 g/ha): 4 (Herbicidal ratio of 70% or more and less than 90%)
3 | Cn1nnnc1NC(=O)c1ccc(C(F)(F)F)n2c(COc3ccccc3)nnc12 [2-020] | 2 (Herbicidal ratio of 20% or more and less than 40%) | 0 (Herbicidal ratio of 5% or less (almost no effect)) | 2 (Herbicidal ratio of 20% or more and less than 40%) | – | – | – | – | – | – | – | – | – | – | – | – | – | – | – | – | – | f: effect on crop, Beta vulgaris ssp. vulgaris [2, 6]: 5 (Herbicidal ratio of 90% or more (almost completely withered)); e: effect on crop, Triticum aestivum (Triticum aestivum; [6]): 1 (Herbicidal ratio of 5% or more and less than 20%); c: effect on crop, Zea mays (Zea mays; [6]): 0 (Herbicidal ratio of 5% or less (almost no effect)); g: effect on crop, Brassica campestris L. (Brassica campestris L.; [6]): 3 (Herbicidal ratio of 40% or more and less than 70%); d: effect on crop, Glycine max (Glycine max; [6]): 3 (Herbicidal ratio of 40% or more and less than 70%); b: effect on crop, directly sowed Oryza sativa [3, 6]: 2 (Herbicidal ratio of 20% or more and less than 40%); K: herbicidal effect on Lolium multiflorum Lam. (Lolium multiflorum Lam.; [6]): 1 (Herbicidal ratio of 5% or more and less than 20%); N: herbicidal effect on Amaranthus retroflexus (Amaranthus retroflexus; [6]): 4 (Herbicidal ratio of 70% or more and less than 90%); I: herbicidal effect on Avena fatua (Avena fatua; [6]): 1 (Herbicidal ratio of 5% or more and less than 20%); H: herbicidal effect on Echinochloa crus-galli var. crus-galli [4, 6]: 3 (Herbicidal ratio of 40% or more and less than 70%); L: herbicidal effect on Apera spica-venti. (Apera spica-venti.; [6]): 1 (Herbicidal ratio of 5% or more and less than 20%); R: herbicidal effect on Veronica persica (Veronica persica; [6]): 4 (Herbicidal ratio of 70% or more and less than 90%); P: herbicidal effect on Stellaria media (Stellaria media; [6]): 4 (Herbicidal ratio of 70% or more and less than 90%); M: herbicidal effect on Abutilon theophrasti (Abutilon theophrasti; [6]): 5 (Herbicidal ratio of 90% or more (almost completely withered)); F: herbicidal effect on Digitaria ciliaris (Digitaria ciliaris; [6]): 3 (Herbicidal ratio of 40% or more and less than 70%); O: herbicidal effect on Chenopodium album (Chenopodium album; [6]): 5 (Herbicidal ratio of 90% or more (almost completely withered)); J: herbicidal effect on Alopecurus myosuroides (Alopecurus myosuroides; [6]): 0 (Herbicidal ratio of 5% or less (almost no effect)); Q: herbicidal effect on Galium spurium (Galium spurium; [6]): 2 (Herbicidal ratio of 20% or more and less than 40%)
4 | O=C(Nc1nnco1)c1ccc(C(F)(F)F)n2c(-c3ccc(Cl)nc3)nnc12 [1-150] | 5 (Herbicidal ratio of 90% or more (almost completely withered)) | 4 (Herbicidal ratio of 70% or more and less than 90%) | 5 (Herbicidal ratio of 90% or more (almost completely withered)) | 5 (Herbicidal ratio of 90% or more (almost completely withered)) | 3 (Herbicidal ratio of 40% or more and less than 70%) | 0 (Herbicidal ratio of 5% or less (almost no effect)) | 5 (Herbicidal ratio of 90% or more (almost completely withered)) | 4 (Herbicidal ratio of 70% or more and less than 90%) | 3 (Herbicidal ratio of 40% or more and less than 70%) | 3 (Herbicidal ratio of 40% or more and less than 70%) | 5 (Herbicidal ratio of 90% or more (almost completely withered)) | 3 (Herbicidal ratio of 40% or more and less than 70%) | 5 (Herbicidal ratio of 90% or more (almost completely withered)) | 3 (Herbicidal ratio of 40% or more and less than 70%) | 5 (Herbicidal ratio of 90% or more (almost completely withered)) | 5 (Herbicidal ratio of 90% or more (almost completely withered)) | 3 (Herbicidal ratio of 40% or more and less than 70%) | 4 (Herbicidal ratio of 70% or more and less than 90%) | 5 (Herbicidal ratio of 90% or more (almost completely withered)) | 1 (Herbicidal ratio of 5% or more and less than 20%) | Q (Galium spurium) herbicidal effect grade (Galium spurium; [5]): 4 (Herbicidal ratio of 70% or more and less than 90%)

From patent US9708314B2, “Heterocyclic amide compound” (NISSAN CHEMICAL INDUSTRIES, LTD., priority 2013, dated 2017)
